Results: article PMC5853648 (Biochemistry, 2017)

Assays:
CidC [1] = biological target: T1, CidC (Staphylococcus aureus, UniProt Q6PST7); test: ferricyanide reduction assay, absorbance […] nm; format: biochemical
T1 sequence (Q6PST7 2-579): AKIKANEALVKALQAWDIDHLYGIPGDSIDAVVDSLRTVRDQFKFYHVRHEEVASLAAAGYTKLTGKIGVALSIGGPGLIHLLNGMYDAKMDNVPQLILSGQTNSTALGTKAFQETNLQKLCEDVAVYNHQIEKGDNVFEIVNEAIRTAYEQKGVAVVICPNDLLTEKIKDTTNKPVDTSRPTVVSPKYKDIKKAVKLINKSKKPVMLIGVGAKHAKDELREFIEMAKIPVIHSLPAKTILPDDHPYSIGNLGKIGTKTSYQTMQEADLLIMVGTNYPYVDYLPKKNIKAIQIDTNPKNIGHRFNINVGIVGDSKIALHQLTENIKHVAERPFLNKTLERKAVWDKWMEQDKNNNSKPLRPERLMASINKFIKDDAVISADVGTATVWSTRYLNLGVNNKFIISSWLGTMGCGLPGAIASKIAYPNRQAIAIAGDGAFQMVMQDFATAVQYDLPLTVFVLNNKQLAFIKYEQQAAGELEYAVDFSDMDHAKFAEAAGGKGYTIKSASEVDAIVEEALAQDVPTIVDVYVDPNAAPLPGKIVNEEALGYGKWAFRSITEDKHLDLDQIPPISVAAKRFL

CidC [2] = biological target: T1, CidC; test: tryptophan fluorescence quenching titration; format: binding

Row | IC50 (CidC [1]) | Kd (CidC [2]) | Compound
1 | 10 mM |  | O=C(O)CC(O)(CC(=O)O)C(=O)O [citrate]
2 |  | 0.0003 mM | Cc1ncc(C[n+]2csc(CCO[P@](=O)(O)OP(=O)(O)O)c2C)c(N)n1 [TPP]
